Data from paper PMC10435442, “Developing multitarget coumarin based anti-breast cancer agents: synthesis and molecular modeling study” (Scientific Reports, 2023).
≈ marks a conversion by molar mass, not a printed value. Where “and” joins values, the source holds several entries; their conditions need not be identical. Equal values may be shown once. Read-outs that look alike come from different tables or passages of the source.

Columns and labels:
[1] = system: Bax; test: Bax level (ELISA) in treated cells; type: cell-based, human; settings: for Bax Conc: MDA-MB-231 cells
[2] = system: Bcl-2; test: Bcl-2 level (ELISA) in treated cells; type: cell-based, human; settings: for Bcl-2 Conc. (single wells) / Bcl-2 Conc. (Average): Bcl-2 ELISA; for BCL2 FLD (fold vs control): cont.MDA = 1; for Bcl-2 Conc: MDA-MB-231 cells
[3] = system: Caspase-9; test: Caspase-9 level (ELISA) in treated cells; type: cell-based, human; settings: for Caspase-9 Conc.: MDA-MB-231 cells
[4] = system: MCF-7; test: MTT cytotoxicity assay, MCF-7; settings: for IC50: Homo sapiens
[5] = system: MDA-MB-231; test: MTT cytotoxicity assay, MDA-MB-231; settings: for IC50: Homo sapiens; for % viability: MDA
[6] = system: MDA-MB-231; test: DNA flow cytometric cell cycle analysis, MDA-MB-231; type: cell-based, human; settings: for Comment (cell cycle phase of growth arrest) / DNA content %G0-G1 / DNA content %Pre-G1 / DNA content %S: MDA; for %G0-G1 / %Pre-G1 / %S: MDA-MB-231, IC50 concentration; for cell cycle arrest at S phase / increase of apoptotic cells in pre-G1 phase: MDA-MB-231, compared to control
[7] = system: MCF-10A; test: MTT cytotoxicity assay, nonmalignant MCF-10A; settings: read-out: MCF-10A IC50; MTT, nonmalignant MCF-10A;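 note: MTT assay with absorbance read at 570 nm after 48 h exposure of cells to serial compound concentrations at 37 °C, testing selectivity against nonmalignant versus cancer cells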
[8] = in vitro; settings: human, MCF-10A cells (nonmalignant breast)
[9] = target: EGFR (Homo sapiens, UniProt P00533); test: In vitro EGFR enzyme inhibition assay (ELISA)
[10] = system: MDA-MB-231; test: Annexin V-FITC/PI dual staining apoptosis assay, MDA-MB-231; type: cell-based, human; settings: for Apoptosis Early / Apoptosis Late / Apoptosis Total / Necrosis: MDA; for % Apoptosis Early / % Apoptosis Late / % Apoptosis Total / % Necrosis: MDA-MB-231
[11] = MDA, ELISA backfit, duplicate wells
[12] = MDA cells (MDA-MB-231) treated with the compound, cont.MDA 10.83±0.046
[13] = MDA cells (MDA-MB-231), duplicate wells, control 10.83
[14] = MDA cells (MDA-MB-231), mean of 2 wells, control 10.83
[15] = MDA cells (MDA-MB-231) treated with the compound, cont.MDA 2.611±0.19
[16] = MDA cells (MDA-MB-231), caspase9 ELISA, duplicate wells, control 4.084
[17] = MDA cells (MDA-MB-231), cont.MDA = 1
[18] = MCF7, read-out: cytotoxicity_IC50 mcf7
[19] = MDA-MB-231, read-out: MDA-MBA-231 IC50
[20] = MDA-MB-231, read-out: cytotoxicity_IC50 MDA

Sequence of EGFR (P00533 25-1210): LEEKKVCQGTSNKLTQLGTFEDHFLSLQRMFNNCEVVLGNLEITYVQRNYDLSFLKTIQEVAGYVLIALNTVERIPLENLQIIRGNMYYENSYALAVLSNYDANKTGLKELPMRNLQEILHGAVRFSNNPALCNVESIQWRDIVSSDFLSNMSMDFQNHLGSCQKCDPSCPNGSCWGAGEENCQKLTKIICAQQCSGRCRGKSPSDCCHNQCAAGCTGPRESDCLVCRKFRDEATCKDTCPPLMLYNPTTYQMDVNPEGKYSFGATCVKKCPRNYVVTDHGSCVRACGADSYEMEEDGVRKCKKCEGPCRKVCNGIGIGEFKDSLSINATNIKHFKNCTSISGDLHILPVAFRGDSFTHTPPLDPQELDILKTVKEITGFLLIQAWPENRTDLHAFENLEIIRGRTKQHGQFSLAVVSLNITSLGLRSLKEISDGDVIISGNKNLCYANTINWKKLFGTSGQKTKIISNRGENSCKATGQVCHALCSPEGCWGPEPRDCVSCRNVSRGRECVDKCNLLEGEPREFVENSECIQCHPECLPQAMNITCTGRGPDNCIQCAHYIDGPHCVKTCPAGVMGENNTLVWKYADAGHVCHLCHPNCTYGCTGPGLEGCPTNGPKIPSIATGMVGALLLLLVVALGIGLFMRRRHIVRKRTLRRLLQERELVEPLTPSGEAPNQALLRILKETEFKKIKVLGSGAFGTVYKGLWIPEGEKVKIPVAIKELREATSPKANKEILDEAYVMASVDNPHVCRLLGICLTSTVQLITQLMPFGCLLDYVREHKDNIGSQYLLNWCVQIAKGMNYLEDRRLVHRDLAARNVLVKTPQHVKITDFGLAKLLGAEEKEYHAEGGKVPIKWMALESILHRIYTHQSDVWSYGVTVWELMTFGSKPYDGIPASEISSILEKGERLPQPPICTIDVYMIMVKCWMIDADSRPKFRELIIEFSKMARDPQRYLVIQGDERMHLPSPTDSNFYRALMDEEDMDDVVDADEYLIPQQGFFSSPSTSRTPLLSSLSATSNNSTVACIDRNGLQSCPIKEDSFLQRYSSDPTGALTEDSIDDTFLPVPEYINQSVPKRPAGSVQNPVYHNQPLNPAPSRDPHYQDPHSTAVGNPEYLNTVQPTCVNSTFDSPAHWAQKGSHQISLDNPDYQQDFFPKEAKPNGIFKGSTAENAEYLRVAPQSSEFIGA

Compound: COc1ccccc1C(=O)OCc1cc(=O)oc2cc(OCC(=O)c3ccc(Cl)cc3)ccc12 [s12]
- Bax Conc. (Average) [1, 11]: 360.4 pg/mL
- BAX ([1]; MDA, cell culture supernatant): 360.4 ± 11.8 pg/mL
- BAX FLD ([1]; MDA, fold vs cont.MDA = 1): 5.22
- BCL2 conc. [2, 12]: 2.934 ± 0.154 ng/mL
- Bcl-2 Conc. (single wells) [2, 13]: 2.826 ng/mL and 3.043 ng/mL
- Bcl-2 Conc. (Average) [2, 14]: 2.934 ng/mL
- BCL2 FLD (fold vs control) ([2]; MDA cells (MDA-MB-231)): 0.271
- Casp9 [3, 15]: 19.16 ± 0.41 ng/mL
- Caspase 9 Conc. (single wells) [3, 16]: 21.43 ng/mL and 21.56 ng/mL
- Casp9 FLD (fold vs control) [3, 17]: 7.34

Compound: O=C(COc1ccc2c(COC(=O)c3ccccc3)cc(=O)oc2c1)c1ccc(Cl)cc1 [Compound S8]
- Bax Conc. (Average) ([1]; MCF7, ELISA backfit, wells A2-C2): 164.5 pg/mL
- BAX ([1]; MCF7, cell culture supernatant): 164.5 ± 5.58 pg/mL
- BAX FLD ([1]; MCF7, fold vs cont.MCF7 = 1): 5.27
- BCL2 conc. ([2]; MCF7): 3.291 ± 0.36 ng/mL
- BCL2 FLD ([2]; MCF7, fold vs cont.MCF7 = 1): 0.44
- Bcl-2 Conc. (Average) ([2]; MCF7 cells treated with the compound, mean of 3 wells, control 7.438): 3.291 ng/mL
- Bcl-2 Conc. (single wells) ([2]; MCF7 cells treated with the compound, replicate wells, control 7.438): 3.693 ng/mL and 3.01 ng/mL and 3.172 ng/mL
- Casp9 ([3]; MCF7 cells treated with the compound, cont.MCF7 4.528±0.61): 30.39 ± 2.56 ng/mL
- Caspase 9 Conc. (Average) ([3]; MCF7 cells, caspase9 ELISA, mean of 3 wells, control 4.528): 30.39 ng/mL
- Caspase 9 Conc. (single wells) ([3]; MCF7 cells, caspase9 ELISA, replicate wells, control 4.528): 27.43 ng/mL and 31.78 ng/mL and 31.97 ng/mL
- Casp9 FLD (fold vs control) ([3]; MCF7 cells, cont.MCF7 = 1): 6.71

Compound: COc1ccccc1C(=O)OCc1cc(=O)oc2cc(OCC(=O)c3ccc(Cl)cc3)ccc12 [Compound 12, {7-[2-(4-Chlorophenyl)-2-oxoethoxy]-2-oxo-2H-chromen-4-yl}methyl 2-methoxybenzoate]
- Bax Conc [1]: 0.36±0.0118^cef ng/ml
- IC50 ([4]; MCF7, read-out: MCF-7 IC50): 13.2 ± 0.38 µM
- IC50 [4, 18]: 6.33 ± 0.38 µg/mL
- % viability ([4]; MCF7, 0.4ug): 65.22%
- % viability ([4]; MCF7, 1.6ug): 57.537%
- % viability ([4]; MCF7, 6.3ug): 50.147%
- % viability ([4]; MCF7, 25ug): 44.457%
- % viability ([4]; MCF7, 100ug): 33.0205%
- IC50 [5, 19]: 3500 ± 90 nM
- IC50 [5, 20]: 1.71 ± 0.09 µg/mL
- % viability ([5]; 0.4ug (log conc. -0.41)): 56.517%
- % viability ([5]; 1.6ug (log conc. 0.19)): 51.229%
- % viability ([5]; 6.25ug (log conc. 0.8)): 44.231%
- % viability ([5]; 25ug (log conc. 1.4)): 36.538%
- % viability ([5]; 100ug (log conc. 2)): 26.8697%
- Bcl-2 Conc [2]: 2.934±0.154^be ng/ml
- Comment (cell cycle phase of growth arrest) [6]: cell growth arrest@ G1/S
- DNA content %G0-G1 [6]: 63.58%
- DNA content %Pre-G1 [6]: 46.28%
- DNA content %S [6]: 29.97%
- %G0-G1 [6]: 63.58^abc ^ADE %
- %Pre-G1 [6]: 46.28^cdg ^ABC %
- %S [6]: 29.97 ^BDF %
- cell cycle arrest at S phase [6]: 1.08 folds
- increase of apoptotic cells in pre-G1 phase [6]: 22.46 folds
- IC50 [7]: 72.1 ± 1.68 µM
- Caspase-9 Conc. [3]: 19.16±0.41^df ng/ml
- IC50 at 48 h [8]: 34.5 ± 1.68 µg/mL (≈ 72 µM)
- viability at 48 h, 0.4 ug [8]: 81.4%
- viability at 48 h, 1.6 ug [8]: 75.8%
- viability at 48 h, 6.25 ug [8]: 62.5%
- viability at 48 h, 25 ug [8]: 55%
- viability at 48 h, 100 ug [8]: 39.6%
- IC50 ([9]; EGFR IC50, lab report 01-09-2021, 04 compounds, reference Erlotinib): 177 nM
- IC50 ([9]; EGFR inhibition IC50): 177 ± 1.8 nM
- inhibition at 10 pg/mL ([9]; read-out: EGFR %inh): 32%
- inhibition at 0.0001 µg/mL ([9]; read-out: EGFR %inh): 50%
- inhibition at 0.001 µg/mL ([9]; read-out: EGFR %inh): 73%
- inhibition at 0.01 µg/mL ([9]; read-out: EGFR %inh): 88%
- Percentage above Reference IC50 (potency relative to erlotinib) ([9]; reference Erlotinib): 81.92%
- Apoptosis Early [10]: 16.75
- Apoptosis Late [10]: 23.02
- Apoptosis Total [10]: 46.28
- Necrosis [10]: 6.51
- % Apoptosis Early [10]: 16.75^beg %
- % Apoptosis Late [10]: 23.02^eg %
- % Apoptosis Total [10]: 46.28% and 46.28^be %
- % Necrosis [10]: 6.51%

Compound: O=C(COc1ccc2c(COC(=O)c3ccc(Cl)cc3)cc(=O)oc2c1)c1ccc(Cl)cc1 [s10]
- Bax Conc. (Average) [1, 11]: 248.9 pg/mL
- BAX ([1]; MDA, cell culture supernatant): 248.9 ± 7.88 pg/mL
- BAX FLD ([1]; MDA, fold vs cont.MDA = 1): 3.6
- BCL2 conc. [2, 12]: 4.088 ± 0.058 ng/mL
- Bcl-2 Conc. (single wells) [2, 13]: 4.046 ng/mL and 4.129 ng/mL
- Bcl-2 Conc. (Average) [2, 14]: 4.088 ng/mL
- BCL2 FLD (fold vs control) ([2]; MDA cells (MDA-MB-231)): 0.377
- Casp9 [3, 15]: 16.77 ± 0.37 ng/mL
- Caspase 9 Conc. (single wells) [3, 16]: 18.48 ng/mL and 17.62 ng/mL
- Casp9 FLD (fold vs control) [3, 17]: 6.42

Compound: O=C(COc1ccc2c(COC(=O)c3ccc(Cl)cc3)cc(=O)oc2c1)c1ccc(Cl)cc1 [Compound 10, {7-[2-(4-Chlorophenyl)-2-oxoethoxy]-2-oxo-2H-chromen-4-yl}methyl 4-chlorobenzoate]
- Bax Conc [1]: 0.249±0.0079^be ng/ml
- IC50 ([4]; MCF7, read-out: MCF-7 IC50): 95.8 ± 2.81 µM
- IC50 [4, 18]: 46.3 ± 2.81 µg/mL
- % viability ([4]; MCF7, 0.4ug): 85.616%
- % viability ([4]; MCF7, 1.6ug): 73.288%
- % viability ([4]; MCF7, 6.3ug): 64.521%
- % viability ([4]; MCF7, 25ug): 54.315%
- % viability ([4]; MCF7, 100ug): 44.863%
- IC50 [5, 19]: 2300 ± 60 nM
- IC50 [5, 20]: 1.09 ± 0.06 µg/mL
- % viability ([5]; 0.4ug (log conc. -0.41)): 56.384%
- % viability ([5]; 1.6ug (log conc. 0.19)): 47.375%
- % viability ([5]; 6.25ug (log conc. 0.8)): 40.274%
- % viability ([5]; 25ug (log conc. 1.4)): 30.609%
- % viability ([5]; 100ug (log conc. 2)): 23.5084%
- Bcl-2 Conc [2]: 4.088±0.058^cf ng/ml
- Comment (cell cycle phase of growth arrest) [6]: cell growth arrest@ S
- DNA content %G0-G1 [6]: 51.97%
- DNA content %Pre-G1 [6]: 33.43%
- DNA content %S [6]: 43.82%
- %G0-G1 [6]: 51.97^ad ^AC %
- %Pre-G1 [6]: 33.43^bdf ^AB %
- %S [6]: 43.82^bc ^D %
- cell cycle arrest at S phase [6]: 1.59 folds
- increase of apoptotic cells in pre-G1 phase [6]: 16.22 folds
- IC50 [7]: 76.8 ± 1.81 µM
- Caspase-9 Conc. [3]: 16.77±0.37^be ng/ml
- IC50 at 48 h [8]: 37.1 ± 1.81 µg/mL (≈ 76.8 µM)
- viability at 48 h, 0.4 ug [8]: 82.6%
- viability at 48 h, 1.6 ug [8]: 69.1%
- viability at 48 h, 6.25 ug [8]: 61.1%
- viability at 48 h, 25 ug [8]: 52.6%
- viability at 48 h, 100 ug [8]: 44.4%
- IC50 ([9]; EGFR IC50, lab report 01-11-2021, 10 compounds): 86.9 nM
- IC50 ([9]; EGFR inhibition IC50): 86 ± 6 nM
- Percentage above Reference IC50 (potency relative to erlotinib) ([9]; reference Erlotinib): 97.67% and 97.674%
- Apoptosis Early [10]: 9.61
- Apoptosis Late [10]: 17.83
- Apoptosis Total [10]: 33.43
- Necrosis [10]: 5.99
- % Apoptosis Early [10]: 9.61^df %
- % Apoptosis Late [10]: 17.83^df %
- % Apoptosis Total [10]: 33.43% and 33.43^df %
- % Necrosis [10]: 5.99%
